Data as given in patent US7357835B2, “Production of crystalline materials by using high intensity ultrasound” (Accentus PLC, priority 2002, dated 2008).

Key:
[1] = Effect of ultrasound on crystallisation of aqueous D-xylose solution cooled at 0.2 K/min; type: physicochemical; conditions: for temperature T at which solid first appeared: solution saturated at 50° C.
Description: Referring to the drawing, a batch crystallisation irradiator 10 includes a stainless-steel vessel 12 of internal diameter 0.31 m and of wall thickness 2 mm. To the outside of the wall are attached sixty transducer modules 14 closely packed in a square array. Each transducer module 14 comprises a 50 W piezoelectric transducer 16 which resonates at 20 kHz, attached to a conically flared titanium coupling block 18 by which it is connected to the wall, the wider end of each block being of diameter 63 mm. The transducer modules define five circumferential rings each of twelve modules 14, the centres of the coupling blocks 18 being on a square pitch of 82 mm. The irradiator 10 also incorporates three signal generators 20 (only one is shown) each of which drives the transducers 16 in a pair of adjacent longitudinal rows and another such pair of rows one third of the circumference apart from the first pair.
Consequently the solution will become saturated and then supersaturated. When the temperature is about 10° C. below that at which saturation occurs, the transducers are energized briefly, each generator 20 being energized for 0.8 s successively. Each transducer irradiates 50 W over a circle of diameter 63 mm, that is an intensity of 1.6 W/cm^2. The ultrasonic energy is dissipated over the cylindrical volume of the vessel 12, which is about 31 litres, so if all the transducers 16 were energised simultaneously the power density would be about 100 W/litre. To avoid focusing, only one signal generator 20 is energized at any one time, so the energy deposition is about 33 W/litre. After 0.8 s, a different generator 20 is energized, and so on. After 2.4 s each transducer has been energized, and application of ultrasound is terminated. The contents of the vessel 12 are then inspected, to see if any crystals have formed. If there are no crystals this activation procedure is repeated.
When they are activated, the signal generators 20 generate signals at a frequency that varies between 19.5 and 20.5 kHz, the signals from different signal generators 20 varying independently of each other. The frequency of each signal generator 20 varies sinusoidally with time between those frequency limits, at a frequency of 10 Hz.
(§1) An experiment to investigate the effect of ultrasound on crystallisation has been performed, as follows. An aqueous solution of D-xylose containing 25 g D-xylose per 10 ml water was prepared, which would be saturated at 50° C. This was than cooled at a rate of 0.2 K/min to 20° C., and the resulting solid products were separated and isolated. […] If the transducers 14 were energized for a period of 2 minutes, starting at 46° C., then crystals appeared at 43° C. If the transducers 14 were energized continuously, starting at 50° C., then the resulting crystals were very small, and information on sizes was not obtained.

[2] = Saturation of aqueous D-xylose solution; type: physicochemical; conditions: saturated at 50° C.
Experimental: as §1

crystal size at 10% cumulative percentile (by mass) ([1]; 2 min ultrasound): 43 microns
crystal size at 50% cumulative percentile (by mass) ([1]; 2 min ultrasound): 106 microns
crystal size at 90% cumulative percentile (by mass) ([1]; 2 min ultrasound): 211 microns
temperature T at which solid first appeared ([1]; 2 min ultrasound starting at 46° C., cooled 0.2 K/min): 43 °C
metastable zone width ([1]; absence of ultrasound): about 14 K
metastable zone width ([1]; continuous application of ultrasound): about 4 K
temperature T at which solid first appeared ([1]; continuous ultrasound starting at 50° C., cooled 0.2 K/min): 46 °C
crystal size at 10% cumulative percentile (by mass) ([1]; no ultrasound): 27 microns
crystal size at 50% cumulative percentile (by mass) ([1]; no ultrasound): 67 microns
crystal size at 90% cumulative percentile (by mass) ([1]; no ultrasound): 149 microns
temperature T at which solid first appeared ([1]; no ultrasound (control), cooled 0.2 K/min to 20° C.): 36 °C
metastable zone width ([1]; short application of ultrasound): about 7 K
concentration of saturated aqueous solution [2]: 25 g per 10 ml water
Compound: O=C[C@H](O)[C@@H](O)[C@H](O)CO [D-xylose]
